Results on twelve compounds are retold here after ChEMBL document CHEMBL1201862, “PubChem BioAssay data set” (2004).

Test systems include Malme-3M; RPMI-8226; A498; MDA-MB-231; NCI-H460; OVCAR-4; SF-539; U-251; UO-31; HCT-15; HT-29; COLO 205; SK-MEL-5; NCI-H226; PC-3; OVCAR-3; RXF 393; IGROV-1; HL-60; M14.
What all share (test): NCI-60 cell line screen, 48 h

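Method: 48-hour compound exposure of cells in 96-well plates, five concentrations, linear interpolation of endpoints. GI50 is the concentration that inhibits growth by half.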 Calls of active or inactive are those of the source. Cut-off read from the data, not from the text of the source: active = GI50 up to about 1.1 µM and inactive = higher.

As for `ON=C1CCCCC(=NO)CCCC1`, the GI50 in the assay on Malme-3M, with RPMI-8226, in the assay with A498, in the assay on MDA-MB-231, in the assay with NCI-H460 and in the assay with OVCAR-4 was > 100 µM (inactive) each time. For the same compound, the GI50 in the assay on SF-539 is > 100 µM (inactive); in the assay on U-251 it was > 100 µM (inactive); in the assay with UO-31 it was > 100 µM (inactive); in the assay with HCT-15, > 100 µM; in the assay with HT-29, > 100 µM (inactive); in the assay on COLO 205, > 100 µM (inactive). In addition, the GI50 in the assay on SK-MEL-5, in the assay on NCI-H226 and in the assay with PC-3 was > 100 µM (inactive) in each case.

Turning to `COC(=O)c1c(C)cccc1C1CN=NC12Cc1cc(C)c(C)cc1C2=O` (centres undefined), the GI50 in the assay with Malme-3M is 57.8 µM (inactive); in the assay on OVCAR-3, 62.4 µM (inactive); in the assay with RXF 393, 68.4 µM (inactive); with MDA-MB-231 it was 65.9 µM (inactive); in the assay on NCI-H460, 47.9 µM (inactive); in the assay with OVCAR-4 it was 52 µM (inactive). The GI50 with SF-539 was > 100 µM (inactive); in the assay with U-251, 41.6 µM (inactive); in the assay on UO-31 it was 31.6 µM (inactive); with HCT-15, 30.5 µM; in the assay with HT-29, 36.8 µM (inactive); with COLO 205, 39.4 µM (inactive). Also, the GI50 in the assay with IGROV-1 is > 100 µM (inactive); with SK-MEL-5, 17.1 µM (inactive); in the assay on NCI-H226, 47.9 µM (inactive); in the assay with PC-3, 34.7 µM (inactive); in the assay with HL-60 it was 17.5 µM (inactive); in the assay on M14, 40.6 µM (inactive).

For `C[C@@H](O)C(=O)N1[C@@H]2CC3CC[C@]2(CS1(=O)=O)C3(C)C`, the GI50 was > 100 µM (inactive) in the assay on OVCAR-3; 39.7 µM (inactive) in the assay with RPMI-8226; > 100 µM (inactive) in the assay with RXF 393; > 100 µM (inactive) in the assay with MDA-MB-231; 85.9 µM (inactive) in the assay on NCI-H460; 85.9 µM (inactive) with OVCAR-4. Moreover, the GI50 is 48.9 µM (inactive) with SF-539; 52.1 µM (inactive) in the assay on U-251; > 100 µM (inactive) with UO-31; 56.6 µM with HCT-15; > 100 µM (inactive) with HT-29; 79.3 µM (inactive) in the assay on COLO 205. The GI50 in the assay on IGROV-1 was > 100 µM (inactive); with SK-MEL-5 it was 49.2 µM (inactive); with NCI-H226, 23.2 µM (inactive); in the assay with PC-3, 96.8 µM (inactive); in the assay on HL-60, 28.9 µM (inactive); in the assay with M14, 93.5 µM (inactive).

For the compound `O=C(Nc1ccc2ncccc2c1)c1cc2c(cc1Cl)Sc1nccn1S2(=O)=O`, the GI50 was 16.7 µM (inactive) in the assay on Malme-3M; 21.7 µM (inactive) in the assay with OVCAR-3; 6.85 µM (inactive) in the assay with RPMI-8226; 15.6 µM (inactive) in the assay on RXF 393; 20.4 µM (inactive) in the assay with MDA-MB-231; 15.7 µM (inactive) with NCI-H460. Further, the GI50 in the assay on OVCAR-4 was 26.2 µM (inactive); with SF-539, 20 µM (inactive); with U-251, 13.6 µM (inactive); with UO-31, 18.2 µM (inactive); in the assay on HCT-15, 11 µM; in the assay on HT-29 it was 16.7 µM (inactive). The GI50 with COLO 205 is 18.7 µM (inactive); in the assay with IGROV-1, 12.6 µM (inactive); in the assay on SK-MEL-5 it was 15.3 µM (inactive); with NCI-H226, 18.1 µM (inactive); in the assay on PC-3, 33.6 µM (inactive); in the assay on HL-60, 9.27 µM (inactive). Besides, the GI50 in the assay with M14 is 15.1 µM (inactive).

For `CS(=O)(=O)OCCCSCCSCCCOS(C)(=O)=O`, the GI50 with OVCAR-3, in the assay on MDA-MB-231, in the assay on NCI-H460, in the assay with OVCAR-4, with SF-539 and with U-251 was > 100 µM (inactive) in each case. The GI50 in the assay on UO-31 is > 100 µM (inactive); in the assay with HCT-15, > 100 µM; in the assay on HT-29 it was > 100 µM (inactive); in the assay on COLO 205, > 100 µM (inactive); with IGROV-1, > 100 µM (inactive); in the assay with SK-MEL-5 it was > 100 µM (inactive). Also, the GI50 in the assay with PC-3, with HL-60 and in the assay on M14 was > 100 µM (inactive) throughout.

Turning to `O=C1c2cccc3cc([N+](=O)[O-])cc(c23)C(=O)N1O`, the GI50 was 28.4 µM (inactive) with Malme-3M; 28.9 µM (inactive) in the assay with OVCAR-3; 19.4 µM (inactive) in the assay with RPMI-8226; 33 µM (inactive) in the assay with RXF 393; 14.2 µM (inactive) in the assay on MDA-MB-231; 27.2 µM (inactive) in the assay with NCI-H460. Moreover, the GI50 is 34.1 µM (inactive) in the assay on OVCAR-4; 41.8 µM (inactive) in the assay on U-251; 31.7 µM (inactive) in the assay with UO-31; 32.7 µM in the assay with HCT-15; 31 µM (inactive) with HT-29; 51.1 µM (inactive) in the assay on COLO 205. The GI50 with IGROV-1 is 22.9 µM (inactive); in the assay on SK-MEL-5 it was 35.6 µM (inactive); with NCI-H226 it was 31 µM (inactive); with PC-3, 43.5 µM (inactive); with HL-60, > 100 µM (inactive); in the assay on M14, 39.2 µM (inactive).

Regarding `Cc1cc(O)c2c(c1)C(C1c3cccc(O)c3C(=O)c3c(O)cc(C)cc31)c1cccc(O)c1C2=O` (centres undefined), the GI50 was 0.329 µM (active) in the assay with Malme-3M; 0.25 µM (active) with OVCAR-3; 0.158 µM (active) with RPMI-8226; 0.22 µM (active) with RXF 393; 0.405 µM (active) with MDA-MB-231; 0.198 µM (active) with NCI-H460. Further, the GI50 in the assay with OVCAR-4 was 0.26 µM (active); in the assay on SF-539 it was 0.21 µM (active); with U-251, 0.31 µM (active); in the assay on UO-31, 0.306 µM (active); with HCT-15, 0.317 µM; with HT-29, 0.378 µM (active). For the same compound, the GI50 in the assay on COLO 205 was 0.177 µM (active); in the assay with IGROV-1, 0.378 µM (active); in the assay on SK-MEL-5 it was 0.212 µM (active); with NCI-H226, 0.605 µM (active); in the assay with PC-3, 0.105 µM (active); in the assay with HL-60 it was 0.879 µM (active). Besides, in the assay on M14, the GI50 is 0.327 µM (active).

For `Cn1/c(=N\N=C(\CNCCO)[C@@H](O)[C@@H]2OC(c3ccccc3)OC[C@H]2O)sc2ccccc21` (some centres undefined), the GI50 was 17.7 µM (inactive) in the assay with Malme-3M; 16.4 µM (inactive) with OVCAR-3; 16.1 µM (inactive) in the assay on RXF 393; 15.2 µM (inactive) in the assay with MDA-MB-231; 21.5 µM (inactive) in the assay on NCI-H460; 23.9 µM (inactive) with OVCAR-4. The GI50 is 17.5 µM (inactive) with SF-539; 17.3 µM (inactive) in the assay on U-251; 15.4 µM (inactive) in the assay with UO-31; 25.5 µM in the assay on HCT-15; 18.6 µM (inactive) in the assay on HT-29; 15.5 µM (inactive) in the assay on COLO 205. Besides, the GI50 is 15.8 µM (inactive) with IGROV-1, 14.9 µM (inactive) with SK-MEL-5, 16.6 µM (inactive) with PC-3 and 13.2 µM (inactive) in the assay with M14.

Consider `CC#CC#C/C=C1/C=CC2(CCCCO2)O1` (centres undefined), for which the GI50 in the assay on Malme-3M, with A498, in the assay with MDA-MB-231, in the assay with NCI-H460, in the assay on OVCAR-4 and in the assay with SF-539 was > 100 µM (inactive) in each case. Further, the GI50 was > 100 µM (inactive) with U-251; 42.9 µM (inactive) in the assay on UO-31; 56.8 µM with HCT-15; > 100 µM (inactive) with HT-29; 71.1 µM (inactive) in the assay on COLO 205; 70.1 µM (inactive) with IGROV-1. Further, the GI50 in the assay with SK-MEL-5 is > 100 µM (inactive); in the assay on NCI-H226, > 100 µM (inactive); in the assay with PC-3, > 100 µM (inactive); with HL-60, 19.5 µM (inactive); in the assay with M14, > 100 µM (inactive).

Consider `Cc1cc(C)nc(NC(P(=O)(O)O)P(=O)(O)O)n1`, for which the GI50 in the assay with Malme-3M, with OVCAR-3, in the assay on RXF 393, in the assay on MDA-MB-231, in the assay with NCI-H460 and in the assay with SF-539 was > 100 µM (inactive) each time. For the same compound, the GI50 in the assay with UO-31 is > 100 µM (inactive); in the assay with HCT-15 it was > 100 µM; with HT-29 it was > 100 µM (inactive); in the assay with COLO 205, > 100 µM (inactive); in the assay with IGROV-1 it was > 100 µM (inactive); in the assay on SK-MEL-5 it was > 100 µM (inactive). The GI50 in the assay on NCI-H226, with PC-3 and with M14 was > 100 µM (inactive) throughout.

For `C[C@H]1[C@H](C)CC[C@]2(C)CC[C@]3(C)C(=C[C@@H](O)[C@@H]4[C@@]5(C)[C@H](O)[C@@H](O)[C@H](O)C(C)(C)[C@@H]5CC[C@]43C)[C@H]12`, the GI50 is 77.1 µM (inactive) in the assay on OVCAR-3; 55.6 µM (inactive) in the assay with RPMI-8226; > 100 µM (inactive) in the assay with A498; > 100 µM (inactive) in the assay on MDA-MB-231; > 100 µM (inactive) in the assay with NCI-H460; > 100 µM (inactive) in the assay on SF-539. Further, the GI50 with U-251 was > 100 µM (inactive); in the assay on UO-31, > 100 µM (inactive); in the assay on HCT-15, > 100 µM; with HT-29, > 100 µM (inactive); in the assay with COLO 205 it was > 100 µM (inactive); in the assay with IGROV-1, 67.8 µM (inactive). In addition, the GI50 with SK-MEL-5, in the assay with PC-3, in the assay on HL-60 and in the assay on M14 was > 100 µM (inactive) in each case.

With `Cc1cn(C(=O)NC23CC4CC(CC(C4)C2)C3)c(=O)[nH]c1=O`, the GI50 in the assay on Malme-3M was 44.7 µM (inactive); in the assay on OVCAR-3, 88.3 µM (inactive); in the assay on RPMI-8226 it was 25.5 µM (inactive); in the assay on RXF 393, 21.6 µM (inactive); in the assay on MDA-MB-231, 24.7 µM (inactive); in the assay with NCI-H460, 42.9 µM (inactive). In addition, the GI50 with OVCAR-4 is 38.7 µM (inactive); in the assay with SF-539, 46.2 µM (inactive); with U-251, 43.5 µM (inactive); in the assay with UO-31, 69.5 µM (inactive); in the assay with HCT-15 it was 25.3 µM; in the assay on HT-29, 33.8 µM (inactive). The GI50 with COLO 205 is 24 µM (inactive); in the assay on SK-MEL-5, 38.3 µM (inactive); in the assay with NCI-H226, 24.9 µM (inactive); with PC-3, 35 µM (inactive); with HL-60, 26.4 µM (inactive); in the assay with M14, 36.1 µM (inactive).
